Among the data in patent publication US20250114345A1, “COMPOUNDS AND COMPOSITIONS AS CBP/P300 DEGRADERS AND USES THEREOF” (Oncopia Therapeutics, Inc. d/b/a/ SK Life Science Labs, priority 2023, published 2025) are DC50 and Dmax values, retold here.

Assay [1] addresses T1, CBP (Homo sapiens, UniProt Q92793).
T1 construct: host or cells: A549 CBP HiBit cells
Put plainly: CBP degradation, HiBit technology in A549 CBP HiBit cells (24 h). It counts as cell-based. As to conditions: 24 hrs post treatment. The method in brief: (§1)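 Endogenously HiBiT-tagged A549 cells are plated, left overnight, then treated with a compound dilution series at 37 °C and 5% CO2. At the set time, lytic detection buffer is added and plates are shaken 10 min at room temperature before luminescence is measured to derive potency and Dmax.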

The target of assay [2] is T2, p300 (Homo sapiens, UniProt Q09472).
T2 construct: host or cells: A549 P300 HiBit cells
Put plainly: P300 degradation, HiBit technology in A549 P300 HiBit cells (2 h). The class given is cell-based. To be noted: 2 hrs post treatment; for Dmax: A549, A549 P300 HiBit cells; for DC50: A549 P300 HiBit cells. The method in brief:
as §1
In general terms: With HiBiT, luminescence reflects the tagged protein that the partner subunit can reach.

T2 sequence (Q09472 whole entry): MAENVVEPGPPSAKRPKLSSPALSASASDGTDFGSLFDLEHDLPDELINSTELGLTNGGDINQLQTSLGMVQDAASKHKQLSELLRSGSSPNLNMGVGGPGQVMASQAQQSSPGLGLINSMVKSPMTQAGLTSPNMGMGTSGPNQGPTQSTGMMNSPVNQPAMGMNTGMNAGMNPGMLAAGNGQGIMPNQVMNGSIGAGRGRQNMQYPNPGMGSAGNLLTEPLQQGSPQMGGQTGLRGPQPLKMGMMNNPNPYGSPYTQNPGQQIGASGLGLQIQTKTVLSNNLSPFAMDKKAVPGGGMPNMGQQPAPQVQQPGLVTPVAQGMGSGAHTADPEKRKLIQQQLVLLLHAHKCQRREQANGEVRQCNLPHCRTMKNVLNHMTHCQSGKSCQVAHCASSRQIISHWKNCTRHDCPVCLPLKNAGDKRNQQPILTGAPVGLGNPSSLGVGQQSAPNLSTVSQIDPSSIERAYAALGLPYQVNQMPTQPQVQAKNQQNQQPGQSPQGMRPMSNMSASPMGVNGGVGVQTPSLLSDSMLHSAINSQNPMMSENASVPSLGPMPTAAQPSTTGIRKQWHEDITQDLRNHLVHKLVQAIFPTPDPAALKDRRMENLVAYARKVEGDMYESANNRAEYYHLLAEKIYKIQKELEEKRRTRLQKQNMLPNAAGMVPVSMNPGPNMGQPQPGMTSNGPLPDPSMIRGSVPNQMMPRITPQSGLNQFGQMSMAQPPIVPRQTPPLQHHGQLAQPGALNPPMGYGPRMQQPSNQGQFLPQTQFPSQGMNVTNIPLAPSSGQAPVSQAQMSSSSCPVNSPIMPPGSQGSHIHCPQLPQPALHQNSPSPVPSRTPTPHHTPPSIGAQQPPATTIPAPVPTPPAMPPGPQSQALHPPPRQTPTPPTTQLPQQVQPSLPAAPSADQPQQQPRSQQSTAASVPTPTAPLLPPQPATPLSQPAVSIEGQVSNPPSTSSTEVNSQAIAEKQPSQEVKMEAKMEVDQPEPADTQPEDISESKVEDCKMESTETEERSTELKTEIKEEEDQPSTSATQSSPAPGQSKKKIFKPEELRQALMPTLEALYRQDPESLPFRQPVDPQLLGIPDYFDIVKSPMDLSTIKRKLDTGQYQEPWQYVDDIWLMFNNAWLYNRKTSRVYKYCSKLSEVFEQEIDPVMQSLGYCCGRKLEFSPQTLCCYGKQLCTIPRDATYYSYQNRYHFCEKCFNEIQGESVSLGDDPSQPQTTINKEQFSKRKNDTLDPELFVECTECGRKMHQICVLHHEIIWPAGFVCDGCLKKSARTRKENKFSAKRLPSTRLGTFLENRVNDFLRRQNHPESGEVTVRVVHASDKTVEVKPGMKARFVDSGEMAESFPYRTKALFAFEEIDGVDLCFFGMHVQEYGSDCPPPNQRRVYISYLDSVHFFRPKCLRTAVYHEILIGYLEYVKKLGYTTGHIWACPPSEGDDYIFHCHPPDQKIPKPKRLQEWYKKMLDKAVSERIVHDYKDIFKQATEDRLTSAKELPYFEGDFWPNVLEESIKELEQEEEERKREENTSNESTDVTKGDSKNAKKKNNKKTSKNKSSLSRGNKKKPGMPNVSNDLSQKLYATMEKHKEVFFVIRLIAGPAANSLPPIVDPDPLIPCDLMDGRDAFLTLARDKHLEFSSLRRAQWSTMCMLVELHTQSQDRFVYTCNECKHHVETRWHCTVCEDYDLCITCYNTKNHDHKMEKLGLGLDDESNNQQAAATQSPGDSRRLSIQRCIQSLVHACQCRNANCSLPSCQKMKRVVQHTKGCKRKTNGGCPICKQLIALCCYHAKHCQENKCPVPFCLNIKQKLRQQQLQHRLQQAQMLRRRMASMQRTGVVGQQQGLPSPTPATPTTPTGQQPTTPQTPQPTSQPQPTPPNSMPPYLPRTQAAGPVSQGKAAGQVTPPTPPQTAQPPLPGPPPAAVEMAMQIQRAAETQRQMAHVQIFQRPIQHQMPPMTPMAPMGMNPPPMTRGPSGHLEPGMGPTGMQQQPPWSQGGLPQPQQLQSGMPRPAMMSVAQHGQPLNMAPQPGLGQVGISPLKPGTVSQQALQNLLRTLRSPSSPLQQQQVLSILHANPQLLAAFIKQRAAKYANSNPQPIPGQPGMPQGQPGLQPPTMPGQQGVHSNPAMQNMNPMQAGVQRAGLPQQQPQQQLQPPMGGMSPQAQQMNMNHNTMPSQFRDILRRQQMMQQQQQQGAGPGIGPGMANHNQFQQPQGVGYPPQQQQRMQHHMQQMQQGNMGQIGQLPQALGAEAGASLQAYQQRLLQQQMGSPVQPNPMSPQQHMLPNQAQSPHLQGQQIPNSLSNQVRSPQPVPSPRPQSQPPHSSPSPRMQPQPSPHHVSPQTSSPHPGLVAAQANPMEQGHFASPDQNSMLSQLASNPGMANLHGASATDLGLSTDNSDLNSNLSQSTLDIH
T1 sequence (Q92793 whole entry): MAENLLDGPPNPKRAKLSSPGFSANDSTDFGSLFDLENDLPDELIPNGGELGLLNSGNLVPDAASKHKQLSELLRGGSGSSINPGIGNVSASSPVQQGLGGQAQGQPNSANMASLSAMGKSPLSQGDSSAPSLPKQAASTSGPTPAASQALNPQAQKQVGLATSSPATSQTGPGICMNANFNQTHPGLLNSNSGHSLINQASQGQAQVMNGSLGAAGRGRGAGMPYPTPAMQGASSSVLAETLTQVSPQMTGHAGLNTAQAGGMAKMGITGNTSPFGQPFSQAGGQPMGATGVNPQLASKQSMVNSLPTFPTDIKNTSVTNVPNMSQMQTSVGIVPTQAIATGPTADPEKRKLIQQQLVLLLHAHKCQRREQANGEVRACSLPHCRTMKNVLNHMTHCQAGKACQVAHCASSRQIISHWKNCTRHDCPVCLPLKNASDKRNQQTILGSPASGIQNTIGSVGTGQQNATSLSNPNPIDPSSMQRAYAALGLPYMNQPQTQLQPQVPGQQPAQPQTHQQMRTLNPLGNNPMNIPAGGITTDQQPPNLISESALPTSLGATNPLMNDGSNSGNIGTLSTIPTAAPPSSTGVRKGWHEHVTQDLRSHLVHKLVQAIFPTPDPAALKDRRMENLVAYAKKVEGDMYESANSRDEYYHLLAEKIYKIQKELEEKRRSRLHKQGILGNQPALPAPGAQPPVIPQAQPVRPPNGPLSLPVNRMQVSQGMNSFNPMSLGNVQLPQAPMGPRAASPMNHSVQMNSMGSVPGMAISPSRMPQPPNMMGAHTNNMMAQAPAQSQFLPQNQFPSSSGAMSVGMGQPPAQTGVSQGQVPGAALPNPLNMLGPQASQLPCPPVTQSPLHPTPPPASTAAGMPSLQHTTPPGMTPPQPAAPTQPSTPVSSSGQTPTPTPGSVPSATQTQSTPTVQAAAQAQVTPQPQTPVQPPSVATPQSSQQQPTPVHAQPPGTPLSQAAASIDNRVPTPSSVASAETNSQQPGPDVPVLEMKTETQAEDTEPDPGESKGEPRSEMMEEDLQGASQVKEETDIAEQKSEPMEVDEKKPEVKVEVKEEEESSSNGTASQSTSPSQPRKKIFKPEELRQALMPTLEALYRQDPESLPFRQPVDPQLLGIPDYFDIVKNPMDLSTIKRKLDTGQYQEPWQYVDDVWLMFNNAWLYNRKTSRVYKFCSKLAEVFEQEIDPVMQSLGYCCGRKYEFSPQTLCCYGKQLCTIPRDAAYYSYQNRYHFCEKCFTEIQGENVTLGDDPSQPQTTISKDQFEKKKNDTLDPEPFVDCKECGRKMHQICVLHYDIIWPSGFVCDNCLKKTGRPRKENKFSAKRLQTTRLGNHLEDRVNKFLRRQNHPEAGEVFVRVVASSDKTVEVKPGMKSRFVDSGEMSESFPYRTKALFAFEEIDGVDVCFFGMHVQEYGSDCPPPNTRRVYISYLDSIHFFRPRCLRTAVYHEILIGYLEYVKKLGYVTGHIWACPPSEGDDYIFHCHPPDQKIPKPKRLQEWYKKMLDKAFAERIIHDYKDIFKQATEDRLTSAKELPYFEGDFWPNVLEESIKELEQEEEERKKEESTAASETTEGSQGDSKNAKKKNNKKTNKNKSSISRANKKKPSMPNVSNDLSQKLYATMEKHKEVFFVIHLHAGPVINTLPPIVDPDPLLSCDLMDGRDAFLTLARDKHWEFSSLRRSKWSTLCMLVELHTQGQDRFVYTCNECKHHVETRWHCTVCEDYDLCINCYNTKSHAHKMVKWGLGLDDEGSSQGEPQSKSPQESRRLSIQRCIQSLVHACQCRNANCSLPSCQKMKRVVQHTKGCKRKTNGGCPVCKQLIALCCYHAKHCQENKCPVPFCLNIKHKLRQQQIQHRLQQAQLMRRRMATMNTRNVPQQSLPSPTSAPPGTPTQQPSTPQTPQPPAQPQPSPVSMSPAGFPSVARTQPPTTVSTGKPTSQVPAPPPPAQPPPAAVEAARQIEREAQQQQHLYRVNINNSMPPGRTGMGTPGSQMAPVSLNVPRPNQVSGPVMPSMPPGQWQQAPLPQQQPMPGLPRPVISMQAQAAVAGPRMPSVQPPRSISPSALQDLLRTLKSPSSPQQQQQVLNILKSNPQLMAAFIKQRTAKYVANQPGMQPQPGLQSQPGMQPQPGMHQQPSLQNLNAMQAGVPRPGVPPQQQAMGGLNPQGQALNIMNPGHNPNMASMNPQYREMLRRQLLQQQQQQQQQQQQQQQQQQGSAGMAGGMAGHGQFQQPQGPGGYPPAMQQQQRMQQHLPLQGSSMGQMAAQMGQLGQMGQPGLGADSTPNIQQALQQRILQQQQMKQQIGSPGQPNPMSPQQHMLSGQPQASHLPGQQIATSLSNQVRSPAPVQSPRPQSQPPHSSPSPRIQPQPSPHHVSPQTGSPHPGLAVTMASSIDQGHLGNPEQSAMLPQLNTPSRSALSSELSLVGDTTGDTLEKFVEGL

As a reminder, the DC50 is the midpoint of the concentration-degradation curve. A high value points to degradation only at high concentration. What is called Dmax is the greatest extent of degradation seen. Read a low Dmax as shallow degradation. Take `Cc1cc(-c2ccc3c(c2)n(C)c(=O)n3C)c2cnc(-c3ccc(C(=O)NCC#Cc4ccc5occ(C6CCC(=O)NC6=O)c5c4)nc3)cc2c1` (stereo not drawn) [Example A84, 5-(8-(1,3-dimethyl-2-oxo-2,3-dihydro-1H-benzo[d]imidazol-5-yl)-6-methylisoquinolin-3-yl)-N-(3-(3-(2,6-dioxo-piperidin-3-yl)benzofuran-5-yl)prop-2-yn-1-yl) picolinamide]: in assay [1], the DC50 was more than 1000 nM and the maximal degradation (Dmax) was less than 20%. Further, in assay [2], the Dmax was more than 80% and the DC50 fell in the range of 10 to 99 nM.
Taken in the same sequence, the figures for `CCn1c(=O)n(C)c2c(N3CCOCC3)nc(-c3cccc4cc(-c5ccc(C(=O)NCC#Cc6cc7c(C8CCC(=O)NC8=O)cccc7o6)nc5)ncc34)cc21` (stereo not drawn) [Example A260, N-(3-(4-(2,6-dioxo-piperidin-3-yl)benzofuran-2-yl)prop-2-yn-1-yl)-5-(8-(1-ethyl-3-methyl-4-morpholino-2-oxo-2,3-dihydro-1H-imidazo[4,5-c]pyridin-6-yl)isoquinolin-3-yl)picolinamide] were more than 1000 nM, less than 20%, more than 80% and less than 1 nM.
Taken in the same sequence, the figures for `CC(C)c1cc(N2CCCc3nc(-c4ccc(C(=O)NCC#Cc5cc6c(C7CCC(=O)NC7=O)cccc6o5)nc4)ncc32)cc2c1n(C)c(=O)n2C` (stereo not drawn) [Example A237, N-(3-(4-(2,6-dioxo-piperidin-3-yl)benzofuran-2-yl)prop-2-yn-1-yl)-5-(5-(7-isopropyl-1,3-dimethyl-2-oxo-2,3-dihydro-1H-benzo [d]imidazol-5-yl)-5,6,7,8-tetrahydro-pyrido[3,2-d]pyrimidin-2-yl)picolinamide] were 100 to 999 nM, less than 20%, more than 80% and less than 1 nM.
With `CC(C)c1cc(-c2cccc3cc(-c4ccc(C(=O)NCC#Cc5ccc6cnn(C7CCC(=O)NC7=O)c6c5F)nc4)ncc23)cc2c1n(C)c(=O)n2C` (stereo not drawn) [Example A1, N-(3-(1-(2,6-Dioxopiperidin-3-yl)-7-fluoro-1H-indazol-6-yl)prop-2-yn-1-yl)-5-(8-(7-isopropyl-1,3-dimethyl-2-oxo-2,3-dihydro-1H-benzo[d]imidazol-5-yl)isoquinolin-3-yl)picolinamide], the half-maximal degradation concentration (DC50) lay within 10 to 99 nM in assay [1] and 1 to 9.9 nM in assay [2]. In addition, the values for the Dmax in assay [1] and in assay [2] were 40 to 59% and more than 80%, respectively.
For `Cc1cc(-c2cc3cccc(-c4cc(C)c5c(c4)n(C)c(=O)n5C)c3cn2)cnc1C(=O)NCC#Cc1ccc2occ(C3CCC(=O)NC3=O)c2c1` (stereo not drawn) [Example A87, N-(3-(3-(2,6-dioxo-piperidin-3-yl)benzofuran-5-yl)prop-2-yn-1-yl)-3-methyl-5-(8-(1,3,7-trimethyl-2-oxo-2,3-dihydro-1H-benzo [d]imidazol-5-yl)isoquinolin-3-yl)picolinamide] the same measures were more than 1000 nM, 1 to 9.9 nM, less than 20% and more than 80%.
For the compound `Cc1cc2c(N3CCN(C)c4nc(-c5ccc(C(=O)NCC#Cc6ccc7occ(C8CCC(=O)NC8=O)c7c6)nc5)ncc43)cc(C3CCOCC3)cc2n(C)c1=O` (stereo not drawn) [Example B124, 5-(5-(1,3-dimethyl-2-oxo-7-(tetrahydro-2H-pyran-4-yl)-1,2-dihydroquinolin-5-yl)-8-methyl-5,6,7,8-tetrahydropteridin-2-yl)-N-(3-(3-(2,6-dioxopiperidin-3-yl)benzofuran-5-yl)prop-2-yn-1-yl)picolinamide], in assay [1], the half-maximal degradation concentration (DC50) was 1 to 9.9 nM and the Dmax was 40 to 59%. In assay [2], this compound yielded a Dmax of more than 80% and a DC50 of less than 1 nM.
In assay [1], `CN1CCN(c2ccc3c(c2)n(C)c(=O)n3C)c2cnc(-c3ccc(C(=O)NCC#Cc4ccc5occ(C6CCC(=O)NC6=O)c5c4)nc3)cc21` (stereo not drawn) [Example A139, 5-(4-(1,3-dimethyl-2-oxo-2,3-dihydro-1H-benzo[d]imidazol-5-yl)-1-methyl-1,2,3,4-tetrahydropyrido[3,4-b]pyrazin-7-yl)-N-(3-(3-(2,6-dioxo-piperidin-3-yl)benzofuran-5-yl)prop-2-yn-1-yl)picolinamide] came in with a DC50 of more than 1000 nM and a Dmax of less than 20%. Besides, in assay [2], the Dmax was more than 80% and the DC50 was less than 1 nM.
Taken in the same sequence, the figures for `Cc1cc2c(N3CCCc4nc(-c5ccc(C(=O)NCC#Cc6ccc7occ([C@H]8CCC(=O)NC8=O)c7c6)nc5)ncc43)nc(N3CCOCC3)cc2n(C)c1=O` [Example B72, (R)-5-(5-(1,3-dimethyl-7-morpholino-2-oxo-1,2-dihydro-1,6-naphthyridin-5-yl)-5,6,7,8-tetrahydropyrido[3,2-d]pyrimidin-2-yl)-N-(3-(3-(2,6-dioxopiperidin-3-yl)benzofuran-5-yl)prop-2-yn-1-yl)picolinamide] were more than 1000 nM, less than 20%, 60 to 79% and 1 to 9.9 nM.
In assay [1], `Cc1cc2c(N3CCOc4nc(-c5ccc(C(=O)NCC#Cc6cc7c(C8CCC(=O)NC8=O)cccc7o6)nc5)ncc43)cc(C3CCOCC3)cc2n(C)c1=O` (stereo not drawn) [Example B96, 5-(5-(1,3-dimethyl-2-oxo-7-(tetrahydro-2H-pyran-4-yl)-1,2-dihydroquinolin-5-yl)-6,7-dihydro-5H-pyrimido[4,5-b][1,4]oxazin-2-yl)-N-(3-(4-(2,6-dioxopiperidin-3-yl)benzofuran-2-yl)prop-2-yn-1-yl)picolinamide] yielded a DC50 of 100 to 999 nM and a maximal degradation (Dmax) of less than 20%. Besides, in assay [2], the Dmax is more than 80% and the 50% degradation concentration (DC50) is 1 to 9.9 nM.
For `Cc1cc(-c2cccc3cc(-c4ccc(C(=O)NCC#Cc5ccc6occ(C7CCC(=O)NC7=O)c6c5)nc4)ncc23)cc2c1n(C)c(=O)n2C` (stereo not drawn) [Example A96, N-(3-(3-(2,6-dioxo-piperidin-3-yl)benzofuran-5-yl)prop-2-yn-1-yl)-5-(8-(1,3,7-trimethyl-2-oxo-2,3-dihydro-1H-benzo[d]imidazol-5-yl)isoquinolin-3-yl)picolinamide] the same measures were more than 1000 nM, less than 20%, more than 80% and 1 to 9.9 nM.
Taken in the same sequence, the figures for `Cc1cc2c(N3CCCc4nc(-c5ccc(C(=O)NCC#Cc6ccc7occ([C@@H]8CCC(=O)NC8=O)c7c6)nc5)ncc43)nc(N3CCOCC3)cc2n(C)c1=O` [Example B73, (S)-5-(5-(1,3-dimethyl-7-morpholino-2-oxo-1,2-dihydro-1,6-naphthyridin-5-yl)-5,6,7,8-tetrahydropyrido[3,2-d]pyrimidin-2-yl)-N-(3-(3-(2,6-dioxopiperidin-3-yl)benzofuran-5-yl)prop-2-yn-1-yl)picolinamide] were more than 1000 nM, less than 20%, more than 80% and 1 to 9.9 nM.
Taken in the same sequence, the figures for `Cc1cc(-c2cc3cccc(-c4ccc5c(c4)n(C)c(=O)n5C)c3cn2)cnc1C(=O)NCC#Cc1ccc2occ([C@@H]3CCC(=O)NC3=O)c2c1` [Example A61, (S)-5-(8-(1,3-dimethyl-2-oxo-2,3-dihydro-1H-benzo[d]imidazol-5-yl)isoquinolin-3-yl)-N-(3-(3-(2,6-dioxo-piperidin-3-yl)benzofuran-5-yl)prop-2-yn-1-yl)-3-methylpicolinamide] were more than 1000 nM, less than 20%, more than 80% and 1 to 9.9 nM.
